{"source": "patent US20230210834A1", "about": "“RNA METHYLTRANSFERASE INHIBITOR, SCREENING METHOD THEREFOR, ANTI-CANCER AGENT EFFICACY ASSESSMENT MARKER, AND KIT FOR EFFECTIVELY PREDICTING FTSJ1 INHIBITOR” (National University Corporation Okayama University, priority 2019, published 2023)", "key": {"[1]": {"test_system": "polyglutamine luciferase reporter", "experiment": "Screening: polyglutamine luciferase reporter assay in NUGC3 cells (luminescence % of DMSO)", "format": "cell-based, human", "conditions": "NUGC3 cells, luminescence relative to DMSO"}, "MGG23": {"test_system": "MGG23", "experiment": "Sphere-forming ability (anchorage-independent cell proliferation), MGG23", "format": "cell-based, human", "conditions": "MGG23 (low FTSJ1 expression), 1 week, 0-5000 nM; FIG. 4B", "procedure": "(§1) To verify whether the expression analysis of these gene clusters contributes to predicting the anti-cancer effect by the FTSJ1 inhibitors, the FTSJ1 gene was actually used as an example to analyze the anti-cancer effect of the FTSJ1 inhibitor PVZF2001 on human malignant brain tumor cell lines. Human malignant brain tumor cell lines MGG4, MGG8, MGG18, MGG23 were treated with stem cell medium (Neurobasal, B-27, N-2, 20 ng/mL EGF, 20 ng/mL bFGF) containing different concentrations (0 nm, 200 nM, 500 nM, 1000 NM, 2000 NM, 5000 nM) of PVZF2001 for 1 week, and anchorage-independent cell proliferation was evaluated based on sphere-forming ability."}, "MGG18": {"test_system": "MGG18", "experiment": "Sphere-forming ability (anchorage-independent cell proliferation), MGG18", "format": "cell-based, human", "conditions": "MGG18 (high FTSJ1 expression), 1 week, 0-5000 nM; FIG. 4B", "procedure": "as §1"}, "[2]": {"test_system": "39 types of human cancer cell lines (JFCR39)", "experiment": "Cell line panel (JFCR39) cell proliferation, sulforhodamine B, GI50", "format": "cell-based", "procedure": "In order to extract genes that prescribe the sensitivity and resistance with respect to the FTSJ1 inhibitors, PVZF2001 was used to proceed with the analysis with a cell line panel (JFCR39). […] The GI50 value is defined, based on the number of cells before drug exposure, as a concentration at which the increase is inhibited by 50% by drug treatment, with the increase in a sample cultured for 48 hours without drug treatment (negative control) taken as 100%. In order to extract the target gene clusters, a COMPARE analysis was first performed using gene expression and the Log GI50 values in all of the cell lines. The gene clusters of SEQ ID NOs: 14 to 28 were then identified as FTSJ1 inhibitor resistance-related genetic markers, while the gene clusters of SEQ ID NOs: 34 to 47 were identified as FTSJ1 inhibitor sensitive-related genetic markers. […] The gene clusters of SEQ ID NOs: 29 to 33 were then identified as FTSJ1 inhibitor resistance-related genetic markers, while the gene clusters of SEQ ID NOs: 48 to 56 were identified as FTSJ1 inhibitor sensitive-related genetic markers. Using these genetic markers, a database of gene expression information (TCGA) obtained from patient samples was analyzed. […] That is, the results reveal that the FTSJ1 gene expression level itself also represents sensitivity and resistance with respect to the FTSJ1 inhibitors (SEQ ID NO: 57)."}, "MGG8": {"test_system": "MGG8", "experiment": "Sphere-forming ability (anchorage-independent cell proliferation), MGG8", "format": "cell-based, human", "conditions": "MGG8 (high FTSJ1 expression), 1 week, 0-5000 nM; FIG. 4B", "procedure": "as §1"}}}
{"smiles": "CC(C)c1cc(C(C)C)c(S(=O)(=O)CC2CC(C)(C)CC(C)(C)C2)c(C(C)C)c1", "note": "[PVZF2001]", "values": [{"measurement": "Polyglutamine", "setting": "[1]; 5 μM", "result": 41.05, "unit": "%"}, {"measurement": "Polyglutamine", "setting": "[1]; 10 μM", "result": 19.01, "unit": "%"}, {"measurement": "anchorage-independent cell proliferation (sphere-forming ability)", "setting": "MGG23", "result": "showed cell proliferation even when treated at a concentration as high as 2000 NM"}, {"measurement": "anchorage-independent cell proliferation (sphere-forming ability)", "setting": "MGG18", "result": "showed proliferation inhibition at low concentrations"}, {"measurement": "sensitivity / resistance of cell line (Log GI50, FIG. 4A)", "setting": "[2]; DMS114, 48 hours", "result": "high sensitivity"}, {"measurement": "sensitivity / resistance of cell line (Log GI50, FIG. 4A)", "setting": "[2]; NCI-H23, 48 hours", "result": "high resistance"}, {"measurement": "sensitivity / resistance of cell line (Log GI50, FIG. 4A)", "setting": "[2]; NCI-H522, 48 hours", "result": "high sensitivity"}, {"measurement": "sensitivity / resistance of cell line (Log GI50, FIG. 4A)", "setting": "[2]; SF-539, 48 hours", "result": "high sensitivity"}, {"measurement": "sensitivity / resistance of cell line (Log GI50, FIG. 4A)", "setting": "[2]; SNB-75, 48 hours", "result": "high sensitivity"}, {"measurement": "sensitivity / resistance of cell line (Log GI50, FIG. 4A)", "setting": "[2]; SNB-78, 48 hours", "result": "high resistance"}, {"measurement": "sensitivity / resistance of cell line (Log GI50, FIG. 4A)", "setting": "[2]; U251, 48 hours", "result": "high sensitivity"}, {"measurement": "anchorage-independent cell proliferation (sphere-forming ability)", "setting": "MGG8", "result": "showed proliferation inhibition at low concentrations"}]}
